These results are taken from patent publication US11046716B2, “Beta-lactamase inhibitors” (priority 2015, dated 2021).

One experiment has as its target T1, SHV-5 (Klebsiella pneumoniae, UniProt P0A3M1).
T1 construct: made in house; host or cells: E. coli BL21(DE3)
In words: β-lactamase enzyme inhibition assay, SHV-5 (cefotaxime substrate). The format is biochemical. Put shortly:
(§1)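 IC50 is the inhibitor level cutting initial substrate hydrolysis rate by 50% relative to no-inhibitor controls, after 15 min enzyme–inhibitor preincubation at 37 °C. KPC-2 read with imipenem at 300 nm, SHV-5 with cefotaxime at 260 nm; enzymes were untagged, E. coli-expressed, chromatographically purified.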

The next experiment has as its target T2, KPC-2 (Klebsiella pneumoniae, UniProt Q9F663).
T2 construct: made in house; host or cells: E. coli BL21(DE3)
In words: β-lactamase enzyme inhibition assay, KPC-2 (imipenem substrate). The following applies: Class A; imipenem substrate, 300 nm; read-out: KPC-2. The format is biochemical. Put shortly:
as §1

Another experiment deals with T3, VIM-2 (Escherichia coli, UniProt Q5U7L7).
T3 construct: made in house; host or cells: E. coli BL21(DE3)
In words: β-lactamase enzyme inhibition assay, VIM-2 (nitrocefin substrate). The following applies: Class B; nitrocefin substrate, 486 nm; read-out: VIM-2. The format is biochemical. Put shortly: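 Metallo-β-lactamase VIM-2 activity was tracked spectrophotometrically at 486 nm with 100 μM nitrocefin over 10 min, following 15 min preincubation with compound at 37 °C; inhibition was calculated per concentration.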

The target in another experiment is T4, AmpC (Enterobacter cloacae, UniProt P05364).
T4 construct: made in house; host or cells: E. coli BL21(DE3)
T4 sequence (P05364 21-381): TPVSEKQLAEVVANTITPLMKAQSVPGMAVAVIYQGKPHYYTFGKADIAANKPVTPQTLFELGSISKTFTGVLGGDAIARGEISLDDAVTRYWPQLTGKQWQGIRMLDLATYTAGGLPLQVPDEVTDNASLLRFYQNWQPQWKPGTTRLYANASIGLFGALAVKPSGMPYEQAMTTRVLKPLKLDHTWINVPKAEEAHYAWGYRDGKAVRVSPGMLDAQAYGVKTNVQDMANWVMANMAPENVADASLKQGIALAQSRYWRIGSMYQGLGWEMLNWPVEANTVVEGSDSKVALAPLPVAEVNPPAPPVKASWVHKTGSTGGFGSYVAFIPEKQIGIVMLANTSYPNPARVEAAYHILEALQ
In words: β-lactamase enzyme inhibition assay, p99 AmpC (nitrocefin substrate). The format is biochemical. The gist of the method:
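IC50 is the inhibitor level cutting initial substrate hydrolysis rate by 50% relative to no-inhibitor controls, after 15 min enzyme–inhibitor preincubation at 37 °C. enzymes were untagged, E. coli-expressed, chromatographically purified.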

The next experiment concerns the target OXA-48 (UniProt Q6XEC0). In words: β-lactamase enzyme inhibition assay, Class D oxacillinase. The format is biochemical. The conditions noted are these: read-out: OXA-48.
Experiment [1] has as its system E. coli expressing the Class A Extended Spectrum Beta-Lactamase (ESBL) CTX-M-15. In words: Broth microdilution MIC assay with ceftazidime, E. coli CTX-M-15. The format is cell-based. The conditions noted are these: Fixed CAZ (ceftazidime) 4 μg/mL; E. coli ESBL4 CTX-M-15. The gist of the method: (§2)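 In cation-adjusted Mueller Hinton broth, bacteria pre-grown 3-5 hours were exposed to test compound (2-fold, 16–0.125 μg/mL) plus a static 4 μg/ml β-lactam. A panel of control β-lactams was run alongside, and the compound MIC was judged by eye following 16-20 hours at 37° C.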

Experiment [2] concerns E. cloacae expressing the Class C P99. In words: Broth microdilution MIC assay with ceftazidime, E. cloacae P99. The format is cell-based. The conditions noted are these: Fixed CAZ (ceftazidime) 4 μg/mL; E. cl. 144200 p99 AmpC. The text has this:
To determine the ability of test compounds to potentiate the inhibition of the growth of bacterial strains that produce beta-lactamase enzymes in the presence of a β-lactam antibiotic, classic cell based broth microdilution MIC assays were employed. Six bacteria strains producing beta-lactamase enzymes were used: E. coli expressing the Class A Extended Spectrum Beta-Lactamase (ESBL) CTX-M-15, E. cloacae expressing the Class C P99, K. pneumoniae expressing the Class A carbapenemase KPC-2, P. aeruginosa expressing the Class B carbapenemase VIM-2, K. pneumoniae expressing the class A carbapenemase KPC-2 and the class B carbapenemase VIM-4, and K. pneumoniae producing the Class D carbapenemase OXA-48. The assay was conducted in Cation Adjusted Mueller Hinton Broth (CAMHB, BD #212322, BD Diagnostic Systems, Sparks, Md.). Bacteria strains were grown for 3-5 hours in CAMBH broth. Test compounds (Examples 1-94) were added to a microtiter plate in 2-fold serial dilutions in CAMHB in a final concentration range of 16 μg/mL to 0.125 μg/ml. An overlay of CAMHB containing a Beta-lactam was added to the compounds at a final static concentration of 4 μg/ml. […] In addition to the titration of test compounds the MICs of a panel of control beta-lactams is also tested to ensure the strains are behaving consistently from test to test. Once the test compound and antibiotics are added the plates can be inoculated according to CLSI broth microdilution method. After inoculation the plates are incubated for 16-20 hours at 37° C. then the Minimal Inhibitory Concentration (MIC) of the test compound is determined visually.
Using the methodology described above, examples of the current invention were evaluated for their ability to inhibit the growth of β-lactamase-producing bacteria in the presence of a β-lactam antibiotic.
On the technique in general: Dilution methods test growth across graded concentrations, often in twofold steps.

Experiment [3] has as its system K. pneumoniae expressing the Class A carbapenemase KPC-2. In words: Broth microdilution MIC assay with meropenem, K. pneumoniae KPC-2. The format is cell-based. The conditions noted are these: Fixed Mero (meropenem) 4 μg/mL; K. p. 156319 KPC-3. Put shortly:
as §2

For experiment [4], the system named is P. aeruginosa expressing the Class B carbapenemase VIM-2. In words: Broth microdilution MIC assay with meropenem, P. aeruginosa VIM-2. The following applies: Fixed Mero (meropenem) 4 μg/mL; P. aerug. 2775 VIM-2. The format is cell-based. The gist of the method: as §2
The subject of experiment [5] is K. pneumoniae expressing the class A carbapenemase KPC-2 and the class B carbapenemase VIM-4. In words: Broth microdilution MIC assay with meropenem, K. pneumoniae KPC-2 and VIM-4. The format is cell-based. The conditions noted are these: Fixed Mero (meropenem) 4 μg/mL; K. p. A-1797 KPC-2 VIM-4. The gist of the method: as §2
Experiment [6] relates to K. pneumoniae producing the Class D carbapenemase OXA-48. In words: Broth microdilution MIC assay with meropenem, K. pneumoniae OXA-48. The format is cell-based. The following applies: Fixed Mero (meropenem) 4 μg/mL; K. p. 11978 OXA-48. Put shortly: as §2

T1 sequence (P0A3M1 22-286): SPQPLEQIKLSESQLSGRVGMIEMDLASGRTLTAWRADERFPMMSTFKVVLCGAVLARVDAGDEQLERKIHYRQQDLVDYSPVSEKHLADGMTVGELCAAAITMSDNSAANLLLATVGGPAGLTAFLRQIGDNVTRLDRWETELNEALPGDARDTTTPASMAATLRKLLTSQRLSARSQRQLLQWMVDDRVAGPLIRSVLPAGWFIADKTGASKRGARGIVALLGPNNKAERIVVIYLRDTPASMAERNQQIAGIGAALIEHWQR
T2 sequence (Q9F663 25-293, looked up): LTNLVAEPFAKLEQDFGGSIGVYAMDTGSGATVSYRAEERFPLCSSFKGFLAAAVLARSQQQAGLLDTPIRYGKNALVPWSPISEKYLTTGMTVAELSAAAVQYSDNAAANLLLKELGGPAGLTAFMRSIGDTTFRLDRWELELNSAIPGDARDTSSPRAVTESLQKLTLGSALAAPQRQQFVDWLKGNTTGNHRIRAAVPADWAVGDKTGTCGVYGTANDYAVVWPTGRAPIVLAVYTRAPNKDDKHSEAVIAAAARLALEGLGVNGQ

With `NCc1cn(C[C@H](N)C(=O)N[C@H]2Cc3cccc(C(=O)O)c3OB2O)nn1` [Example 114, (R)-3-((S)-2-amino-3-(4-(aminomethyl)-1H-1,2,3-triazol-1-yl)propanamido)-2-hydroxy-3,4-dihydro-2H-benzo[e][1,2]oxaborinine-8-carboxylic acid], the IC50 against SHV-5 is 10000 to 100000 nM; at KPC-2 it was 100 to 1000 nM; at VIM-2, 1000 to 10000 nM; against AmpC, < 100 nM; at OXA-48, 1000 to 10000 nM. In addition, the “MIC (μg/mL) of Exemplary Compounds in presence of fixed β-lactams: E. coli ESBL4 CTX-M-15” value (shortened to “MIC (μg/mL) … E. coli ESBL4 CTX-M-15”) in [1] was “C (C represents an MIC of <1 μg/mL)”. For the same molecule, the “MIC (μg/mL) of Exemplary Compounds in presence of fixed β-lactams: E. cl. 144200 p99 AmpC” value (“MIC (μg/mL) … E. cl. 144200 p99 AmpC” below) in experiment [2] was “C (C represents an MIC of <1 μg/mL)”. Besides, in [3], the “MIC (μg/mL) of Exemplary Compounds in presence of fixed β-lactams: K. p. 156319 KPC-3” value (from here on “MIC (μg/mL) … K. p. 156319 KPC-3”) was “C (C represents an MIC of <1 μg/mL)”. Moreover, the “MIC (μg/mL) of Exemplary Compounds in presence of fixed β-lactams: P. aerug. 2775 VIM-2” value (shortened to “MIC (μg/mL) … P. aerug. 2775 VIM-2”) in experiment [4] was “C (C represents an MIC of <1 μg/mL)”. Further, in experiment [5], the “MIC (μg/mL) of Exemplary Compounds in presence of fixed β-lactams: K. p. A-1797 KPC-2 VIM-4” value (from here on “MIC (μg/mL) … K. p. A-1797 KPC-2 VIM-4”) was “B (B represents an MIC between 1 and 16 μg/mL inclusive)”. Besides, the “MIC (μg/mL) of Exemplary Compounds in presence of fixed β-lactams: K. p. 11978 OXA-48” value (“MIC (μg/mL) … K. p. 11978 OXA-48” for short) in experiment [6] is “B (B represents an MIC between 1 and 16 μg/mL inclusive)”.
Consider `CC(C)NCCc1cn(CC(=O)N[C@H]2Cc3cccc(C(=O)O)c3OB2O)nn1` [Example 7, (R)-2-hydroxy-3-(2-(4-(2-(isopropylamino)ethyl)-1H-1,2,3-triazol-1-yl)acetamido)-3,4-dihydro-2H-benzo[e][1,2]oxaborinine-8-carboxylic acid], for which the IC50 against SHV-5 is 100 to 1000 nM; at KPC-2, 1000 to 10000 nM; at VIM-2, 1000 to 10000 nM; at AmpC it was < 100 nM; at OXA-48, 1000 to 10000 nM. The “MIC (μg/mL) … E. coli ESBL4 CTX-M-15” value in experiment [1] is listed as “C (C represents an MIC of <1 μg/mL)”. Also, in experiment [2], the “MIC (μg/mL) … E. cl. 144200 p99 AmpC” value is “C (C represents an MIC of <1 μg/mL)”. Also, the “MIC (μg/mL) … K. p. 156319 KPC-3” value in [3] is given as “C (C represents an MIC of <1 μg/mL)”. Also, the “MIC (μg/mL) … P. aerug. 2775 VIM-2” value in experiment [4] was “C (C represents an MIC of <1 μg/mL)”. Also, in experiment [5], the “MIC (μg/mL) … K. p. A-1797 KPC-2 VIM-4” value was “B (B represents an MIC between 1 and 16 μg/mL inclusive)”. In experiment [6], the “MIC (μg/mL) … K. p. 11978 OXA-48” value is “B (B represents an MIC between 1 and 16 μg/mL inclusive)”.
`N=C(N)NCc1nc(CC(=O)N[C@H]2Cc3cccc(C(=O)O)c3OB2O)cs1` [Example 24, (R)-3-(2-(2-(guanidinomethyl)thiazol-4-yl)acetamido)-2-hydroxy-3,4-dihydro-2H-benzo[e][1,2]oxaborinine-8-carboxylic acid]: the IC50 on SHV-5 is < 100 nM; on KPC-2, < 100 nM; at VIM-2, 100 to 1000 nM; against AmpC it was < 100 nM; at OXA-48 it was 100 to 1000 nM. Also, the “MIC (μg/mL) … E. coli ESBL4 CTX-M-15” value in experiment [1] is on record as “C (C represents an MIC of <1 μg/mL)”. Further, the “MIC (μg/mL) … E. cl. 144200 p99 AmpC” value in [2] is recorded as “C (C represents an MIC of <1 μg/mL)”. Further, the “MIC (μg/mL) … K. p. 156319 KPC-3” value in [3] is “B (B represents an MIC between 1 and 16 μg/mL inclusive)”. The “MIC (μg/mL) … P. aerug. 2775 VIM-2” value in experiment [4] is “B (B represents an MIC between 1 and 16 μg/mL inclusive)”. In addition, in experiment [5], the “MIC (μg/mL) … K. p. A-1797 KPC-2 VIM-4” value was “B (B represents an MIC between 1 and 16 μg/mL inclusive)”. For the same molecule, the “MIC (μg/mL) … K. p. 11978 OXA-48” value in experiment [6] is “B (B represents an MIC between 1 and 16 μg/mL inclusive)”.
